According to patent US7799819B2, “7-Amido-isoindolyl compounds and their pharmaceutical uses” (Celgene Corporation, priority 2003, dated 2010):
Where a name gives a salt, the structure may show the parent alone.

Question: For `CCOc1cc([C@@H](CCN)N2Cc3cccc(NC(=O)C4CC4)c3C2=O)ccc1OC` (as salt: salt) [Example 5, (1R)-Cyclopropanecarboxylic acid {2-[3-amino-1-(3-ethoxy-4-methoxy-phenyl)-propyl]-3-oxo-2,3-dihydro-1H-isoindol-4-yl}-amide], which melting point is on record?
Answer: 169 to 171 °C
